Experimental findings from patent EP0089154A2, “Ethanolamine derivatives, their preparation and use in pharmaceutical compositions” (BEECHAM GROUP PLC, priority 1982, dated 1983) are described below.

Counter-ions that a name gives are not always drawn. Like-named read-outs stand apart in the source and are kept apart here.

As usually defined, the inhibition is the drop in the measured response relative to a control, in per cent. High values mean a strong effect, low ones a weak effect.

Experiment [1] has as its system Female CFLP mice. Nature of the experiment: Anti-hyperglycaemic activity: subcutaneous glucose load in fasted mice. It is filed as in vivo. The settings on record: Mus musculus, po, read-out: % REDUCTION IN AREA UNDER BLOOD GLUCOSE CURVE; for inhibition in vivo at 12.5 µmol/kg: dose 12.5 μmol/kg orally. The protocol:
Female CFLP mice, weighing approximately 25 g, were fasted for 24 hours prior to the study. The compounds under study were administered orally as an aqueous solution to each of 6 mice. 30 Minutes later a blood sample (10 pl) was obtained from the tail for the analysis of blood glucose. Immediately after taking this blood sample, glucose (1 g/kg body weight) was administered subcutaneously to each mouse. 6 Mice were given water as a control. Blood samples were then obtained from each mouse at 30 minute intervals for 120 minutes.
Compounds that produced a significant (P 0.05) reduction of blood glucose, compared with control mice given water, at any time interval, were considered active. The area under the blood glucose curve over the 2 hour period after the administration of the glucose was calculated for each compound and compared with the value for control animals.

Experiment [2] has as its system Rat hearts. Nature of the experiment: Cardiac activity: Langendorff perfused rat heart. The protocol:
Rat hearts were perfused by the Langendorff procedure. Hearts were dissected free within 30 seconds of death and reverse perfused via the aorta and coronary vessels with Krebs-Ringer bicarbonate solution (pH 7.4, 37°C) gassed with 95% oxygen:5% carbon dioxide at a flow rate between 8-12 cm^3/minute. Responses were observed after injection of drug dissolved in isotonic saline into the perfusion media.
Results are expressed as a percentage of the maximum response due to salbutamol.

The test system of experiment [3] is rat ear. Nature of the experiment: Anti-inflammatory activity: croton oil induced rat ear inflammation. It is filed as in vivo. The settings on record: 1.00 mg/rat ear, topical in 1% croton oil in tetrahydrofuran, ear weight after 6 hours. How it is done:
The method used is based on that described by G.Tonelli et al (Endocrinology, 77, 625-634, 1965). An inflammation is induced in the rat ear by the application of 50 pl of a 1% solution of croton oil in tetrahydrofuran, test compounds being dissolved in the irritant vehicle. After 6 hours the inflammation is assessed by killing the animals and weighing the ears. Topical anti-inflammatory activity of a compound is generally considered to be shown when a significant (5% level) reduction in ear weight is seen compared to non- drug treated control.

Where [4] appears, read: mice fasted 24 hours, glucose 1 g/kg subcutaneously, 2 hour period, compared with control given water.
Setting [5] is: 30 µg added to perfusate, perfused rat heart, read-out: HEART RATE.
[6] abbreviates: 30 µg added to perfusate, perfused rat heart, read-out: HEART TENSION.
Setting [7] is: dose 1.0 μmol/kg orally, mice fasted 24 hours, glucose 1 g/kg subcutaneously, 2 hour period, compared with control given water.
The mark [8] stands for this setting: dose 2.5 μmol/kg orally, mice fasted 24 hours, glucose 1 g/kg subcutaneously, 2 hour period, compared with control given water.

Regarding `CC(Cc1ccc([S+](C)[O-])cc1)NCC(O)c1cccc(Cl)c1` (centres unmarked) [Example 20, N-[2-(4-Methylsulphinylphenyl)-1-methylethyl]-2-hydroxy-2-(3-chlorophenyl) ethanamine], the inhibition in vivo at 12.5 µmol/kg in experiment [1] (setting [4]) is 59%.
For `COCCSc1ccc(CC(C)NCC(O)c2cccc(Cl)c2)cc1` (centres unmarked) [Example 21, N-[2-(4-(2-Methoxyethylthio)phenyl)-1-methylethyl]-2-hydroxy-2-(3-chlorophenyl)ethanamine hydrochloride], in experiment [1] (2 h), the inhibition in vivo at 1 µmol/kg turned out to be 31%.
As for `COC(=O)CCS(=O)(=O)c1ccc(CC(C)NCC(O)c2cccc(Cl)c2)cc1` (centres unmarked) [Example 10, N-[2-(4-{2-Carbomethoxyethylsulphonyl}phenyl)-1-methylethyl] -2-hydroxy-2-(3-chlorophenyl)ethanamine], the Emax at 30 µg in experiment [2] (setting [5]) came to 31%; in experiment [2] (setting [6]), 91%. Further, the inhibition in vivo at 1 µmol/kg in experiment [1] (setting [7]) was found to be 10%.
`CC(Cc1ccc(S(=O)(=O)C(C)C)cc1)NCC(O)c1cccc(C(F)(F)F)c1` (centres unmarked) [Example 8, N-[2-(4-Isopropylsulphonylphenyl)-1-methylethyl]-2-hydroxy-2-(3-trifluoromethylphenyl)ethanamine]: the Emax at 30 µg is 29% in experiment [2] (setting [5]) and 30% in experiment [2] (setting [6]).
Regarding `CC(Cc1ccc(SC(C)C)cc1)NCC(O)c1cccc(Cl)c1` (centres unmarked) [Example 3, N-[2-(4-Isopropylthiophenyl)-1-methylethyl]-2-hydroxy-2-(3-chlorophenyl)ethanamine hydrochloride], the inhibition in vivo at 0.5 µmol/kg in experiment [1] (2 h) was 28%.
Turning to `CC(Cc1ccc(CS(=O)(=O)C(C)C)cc1)NCC(O)c1cccc(C(F)(F)F)c1` (centres unmarked) [Example 12, N-[2-(4-Isopropylsulphonylmethylphenyl)-1-methylethyl] -2-hydroxy-2-(3-trifluoromethylphenyl)ethanamine], the Emax at 30 µg stood at 13% in experiment [2] (setting [5]) and 40% in experiment [2] (setting [6]).
`CC(Cc1ccc(S(C)(=O)=O)cc1)NCC(O)c1cccc(C(F)(F)F)c1` (centres unmarked) [Example 7, N-[2-(4-Methylsulphonylphenyl)-1-methylethyl]-2-hydroxy-2-(3-trifluoromethylphenyl)ethanamine]: the Emax at 30 µg in experiment [2] (setting [5]) amounted to 25%; in experiment [2] (setting [6]), 0%. The inhibition in vivo at 12.5 µmol/kg in experiment [1] (setting [4]) came to 48%.
`CC(Cc1ccc(SCCSc2ccccc2)cc1)NCC(O)c1cccc(Cl)c1` (centres unmarked) [Example 24, N-[2-(4-(2-Phenylthioethylthio)phenyl)-1-methylethyl]-2-hydroxy-2-(3-chlorophenyl)ethanamine]: in experiment [1] (setting [8]), the inhibition in vivo at 2.5 µmol/kg was 12%.
As to `CC(Cc1ccc(CS(C)(=O)=O)cc1)NCC(O)c1cccc(C(F)(F)F)c1` (stereo not drawn) [Example 11, N-[2-(4-Methylsulphonylmethylphenyl)-l-methylethyl] -2-hydroxy-2-(3-trifluoromethylphenyl)ethanamine], the Emax at 30 µg in experiment [2] (setting [5]) worked out at 67%; in experiment [2] (setting [6]), 18%.
`COC(=O)CCSc1ccc(CC(C)NCC(O)c2cccc(C(F)(F)F)c2)cc1` (centres unmarked) [Example 1, N-[2-(4-(2-Carbomethoxyethylthio)phenyl)-1-methylethyl] 2-hydroxy-2-(3-trifluoromethylphenyl)ethanamine]: the results for the Emax at 30 µg in experiment [2] (setting [5]) and in experiment [2] (setting [6]) were 0% and 4%, respectively. Further, in experiment [1] (setting [4]), the inhibition in vivo at 12.5 µmol/kg amounted to 35%. For the same compound, in experiment [3], the inhibition was determined as 89%. Besides, in experiment [3] (active = significant (5% level) reduction in ear weight), the result was Active.
In the case of `CSc1ccc(C[C@@H](C)NC[C@H](O)c2cccc(Cl)c2)cc1` [Example 19, (RR, SS)-N-[2-(4-Methylthiophenyl)-1-methylethyl]-2-luydroxy-1-(3-chlorophenyl) ethanamine hydrochloride], the inhibition in vivo at 2.5 µmol/kg in experiment [1] (2 h) turned out to be 26%.
On to `CC(Cc1ccc(SCCOc2ccccc2)cc1)NCC(O)c1cccc(Cl)c1` (centres unmarked) [Example 22, N-[2-(4-(2-Phenoxyethylthio)phenyl)-1-methyletlzyl]-2-hydroxy-2-(3-chlorophenyl) ethanamine], for which the inhibition in vivo at 2.5 µmol/kg in experiment [1] (setting [8]) turned out to be 23%.
On to `CC(Cc1ccc(SC(C)C)cc1)NCC(O)c1ccccc1` (centres unmarked) [Example 17, N-[2-(4-Isopropylthiophenyl)-1-methylethyl]-2-hydroxy-2-phenylethanamine], for which the inhibition in vivo at 2.5 µmol/kg in experiment [1] (2 h) came to 30%.
On to `CSc1ccc(CC(C)NCC(O)c2cccc(Cl)c2)cc1` (centres unmarked) [Example 2, N-[2-(4-Methylthiophenyl)-1-methylethyl]-2-hydroxy-2-(3-chlorophenyl)ethanamine], for which the Emax at 30 µg in experiment [2] (Rattus norvegicus, read-out: HEART RATE) was 23%; in experiment [2] (Rattus norvegicus, read-out: HEART TENSION), 25%. The inhibition in vivo at 1 µmol/kg in experiment [1] (2 h) worked out at 8%.
For the compound `CC(Cc1ccc(SCc2ccccc2)cc1)NCC(O)c1cccc(Cl)c1` (centres unmarked) [Example 4, N-[2-(4-Benzylthiophenyl)-1-methylethyl]-2-hydroxy-2-(3-chlorophenyl)ethanamine], the inhibition in vivo at 12.5 µmol/kg in experiment [1] (setting [4]) stood at 17%.
In the case of `CNCCSc1ccc(CC(C)NCC(O)c2cccc(Cl)c2)cc1` (centres unmarked) [Example 23, N-[2-(4-(2-Methylaminoethylthio)phenyl)-1-methlethyl]-2-hydrox-2-(3-chlorophenyl)ethanamine dihydrochloride], in experiment [1] (setting [7]), the inhibition in vivo at 1 µmol/kg came out at 16%.
Take `CSc1ccc(C[C@H](C)NC[C@H](O)c2cccc(Cl)c2)cc1` [Example 18]: in experiment [1] (2 h), the inhibition in vivo at 5 µmol/kg worked out at 16%.
For the compound `CC(Cc1ccc(S(=O)(=O)C(C)(C)C)cc1)NCC(O)c1cccc(Cl)c1` (centres unmarked) [Example 15, N-(2-(4-t-Butylsulphonylphenyl)-1-methylethyl]-2-hydroxy-2-(3-chlorophenyl)ethanamine hydrobromide], in experiment [1] (2 h), the inhibition in vivo at 100 µmol/kg was 48%.
With `CC(Cc1ccc(S(=O)(=O)CCCO)cc1)NCC(O)c1cccc(C(F)(F)F)c1` (centres unmarked) [Example 9, N-[2-(4-{3-Hyaroxypropylsulphonyl}phenyl)-1-methylethyl] -2-hydroxy-2-(3-trifluoromethylphenyl)-ethanamine], the inhibition in vivo at 12.5 µmol/kg in experiment [1] (setting [4]) amounted to 52%.
